Article PMC11939078, “TAK-994 mechanistic investigation into drug-induced liver injury” (Toxicological Sciences, 2025)
Like-named read-outs stand apart in the source and are kept apart here.

Experiments:
[1] = test system: nonTg-rasH2 mice; experiment: NonTg rasH2 mice 4-week oral gavage toxicity study; type: in vivo, mouse; conditions: for Histopathological Liver Findings / ALT / AST / GLDH: NonTg rasH2 mice 4-week; for ALT / AST / GLDH: mean (SD)
Procedure: Although phase I human clinical trials were ongoing, additional GLP-compliant repeat-dose oral toxicity studies were conducted in nonTg-rasH2 mice, to enable carcinogenicity studies. […] The liver toxicity presented at high doses ≥300 mg/kg/day as single-cell necrosis of periportal hepatocytes associated with increased aspartate aminotransferase (AST), alkaline phosphatase, ALT, and glutamate dehydrogenase values that increased in a dose-proportional manner alongside cytochrome P450 induction (Table S2).
^cAll dose levels had 10 animals per sex.
*p<0.05 using Shirley-Williams test.

[2] = test system: human liver microtissues; experiment: Glutathione depletion (BSO) assay in liver microtissues; type: cell-based; conditions: for IC50: cellular ATP, 14 days
Procedure: Toxicology of TAK-994 was assessed using lnSphero’s 3D lnSight Human Liver models, based on N-acetyl-L-cysteine causality assay, glutathione depletion assay, and lipopolysaccharide (LPS)-sensitization assay. Hepatotoxicity was assessed in 7- and 14-day mono and co-culture models, in which cells were exposed to TAK-994 (0.1, 0.3, 1, 3.16, 10, 31.6, or 100 μM) […].
Co-culture model cells were pretreated with BSO (150 μM in DMSO) and then exposed to TAK-994 (0.1, 0.3, 1, 3.16, 10, 31.6, or 100 μM in 0.5% DMSO) in the presence and absence of BSO for 14 days (during the treatment period, TAK-994 with or without BSO was administered on Days 0, 5, and 9). Six replicates were tested for each condition. The vehicle control was 0.5% DMSO and the positive control was acetaminophen (0.6, 1.25, 2.5, or 5 mM in Medium TOX). Cellular ATP content was measured in the cell lysate on Day 14 of treatment. LDH release was measured on Days 5, 9, and 14 in the cell supernatant. For cells administered BSO alone, cellular ATP content was also measured on Day 3 and LDH release was also determined between Days 0 to 3. LDH measurements were normalized to lysed controls. Cellular GSH content was measured by GSH-Glo™ Glutathione Assay (Promega) on Days 0, 3, and 14 in the positive control group.
Intracellular ATP content in model lysates was measured with the CellTiter-Glo® 2.0 Cell Viability Assay (Catalogue No. G9243, Promega). The Bioluminescent LDH Release Toxicity Assay Kit (Catalogue No. J2380, Promega) was used to assess extracellular LDH release and normalized to lysed controls. ATP, LDH, GSH, and triglycerides were measured according to internal technical operating procedures.

CC(C)(O)C(=O)N1CC[C@H](NS(C)(=O)=O)[C@@H]1Cc1cccc(-c2cc(F)cc(F)c2)c1F.CC(C)(O)C(=O)N1CC[C@H](NS(C)(=O)=O)[C@@H]1Cc1cccc(-c2cc(F)cc(F)c2)c1F.O.O.O [TAK-994]
Histopathological Liver Findings ([1]; female, 300 mg/kg): Single cell necrosis of hepatocytes | ALT ([1]; female, 300 mg/kg): 175 (79)* IU/L | AST ([1]; female, 300 mg/kg): 163 (65)* IU/L | GLDH ([1]; female, 300 mg/kg): 172 (66)* IU/L | Histopathological Liver Findings ([1]; female, 2000 mg/kg): Single cell necrosis of hepatocytes | ALT ([1]; female, 2000 mg/kg): 581 (278)* IU/L | AST ([1]; female, 2000 mg/kg): 317 (203)* IU/L | GLDH ([1]; female, 2000 mg/kg): 562 (324)* IU/L | Histopathological Liver Findings ([1]; female, 4000 mg/kg): Single cell necrosis of hepatocytes | ALT ([1]; female, 4000 mg/kg): 1242 (604)* IU/L | AST ([1]; female, 4000 mg/kg): 473 (216)* IU/L | GLDH ([1]; female, 4000 mg/kg): 1384 (585)* IU/L | Histopathological Liver Findings ([1]; male, 300 mg/kg): Single cell necrosis of hepatocytes | ALT ([1]; male, 300 mg/kg): 99 (57)* IU/L | AST ([1]; male, 300 mg/kg): 79 (34)* IU/L | GLDH ([1]; male, 300 mg/kg): 104 (68)* IU/L | Histopathological Liver Findings ([1]; male, 2000 mg/kg): Single cell necrosis of hepatocytes | ALT ([1]; male, 2000 mg/kg): 337 (409)* IU/L | AST ([1]; male, 2000 mg/kg): 211 (299)* IU/L | GLDH ([1]; male, 2000 mg/kg): 331 (356)* IU/L | Histopathological Liver Findings ([1]; male, 4000 mg/kg): Single cell necrosis of hepatocytes | ALT ([1]; male, 4000 mg/kg): 1164 (330)* IU/L | AST ([1]; male, 4000 mg/kg): 443 (150)* IU/L | GLDH ([1]; male, 4000 mg/kg): 1303 (408)* IU/L | doses at which liver toxicity (single-cell necrosis of periportal hepatocytes, increased AST, ALP, ALT, GLDH) presented ([1]; nonTg-rasH2 mice, repeat-dose oral): ≥ 300 mg/kg/day | sensitization of liver microtissues by buthionine sulfoximine depletion [2]: no such sensitivity was observed | IC50 ([2]; glutathione depleted, read-out: IC50, liver microtissues + BSO (Fig. 4A)): > 100 µM | IC50 ([2]; read-out: IC50, liver microtissues without BSO (Fig. 4A)): > 100 µM
